Data from publication PMC8708751, “Hit Identification of a Novel Quinazoline Sulfonamide as a Promising EphB3 Inhibitor: Design, Virtual Combinatorial Library, Synthesis, Biological Evaluation, and Docking Simulation Studies” (Pharmaceuticals, 2021).

Tests used:
Format in all cases: biochemical
Aurora A = target: T1, Aurora A (Homo sapiens, UniProt O14965); assay: Kinase panel assay, Aurora A; conditions: read-out: Average % Enzyme Inhibition (Relative to DMSO Controls) at 10 µM
T1 construct: purchased Reaction Biology Co. (Kinase HotSpot service)
T1 sequence (O14965 1-403): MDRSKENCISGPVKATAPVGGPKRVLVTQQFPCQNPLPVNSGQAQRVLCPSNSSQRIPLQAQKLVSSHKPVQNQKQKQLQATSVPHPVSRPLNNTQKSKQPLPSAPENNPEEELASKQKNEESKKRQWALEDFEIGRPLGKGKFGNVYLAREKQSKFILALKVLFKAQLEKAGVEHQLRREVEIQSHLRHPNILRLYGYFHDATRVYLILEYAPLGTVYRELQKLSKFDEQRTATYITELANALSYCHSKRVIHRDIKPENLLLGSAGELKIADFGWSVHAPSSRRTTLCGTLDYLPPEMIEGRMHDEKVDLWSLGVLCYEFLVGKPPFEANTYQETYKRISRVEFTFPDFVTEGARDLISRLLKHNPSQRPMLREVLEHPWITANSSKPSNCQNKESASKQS
Procedure: (§1) The screening of the tested compounds was performed using the Kinase HotSpot^SM service from Reaction Biology Co. (http://www.reactionbiology.com, accessed on 25 September 2021). The HotSpot assay platform contains specific kinase/substrate pairs along with required cofactors. Base reaction buffer: 20 mM Hepes (pH 7.5), 10 mM MgCl2, 1 mM EGTA, 0.02% Brij35, 0.02 mg/mL BSA, 0.1 mM Na3VO4, 2 mM DTT, 1% DMSO. The tested compounds were dissolved in 100% DMSO to specific concentration. The serial dilution was conducted by Integra Viaflo Assist in DMSO (Sigma-Aldrich, Burlington, MA, USA). The reaction mixture containing the examined compound and 33P-ATP was incubated at room temperature for 2 h, and radioactivity was detected by filter-binding method. Kinase activity data were expressed as the percent remaining kinase activity in test samples compared to vehicle (dimethyl sulfoxide) reactions. IC50 values and curve fits were obtained using Prism (GraphPad Software, San Diego, CA, USA).

CDK2/cyclin A = target: T2, CDK2/cyclin A (Homo sapiens, UniProt P24941); assay: Kinase panel assay, CDK2/cyclin A; conditions: read-out: Average % Enzyme Inhibition (Relative to DMSO Controls) at 10 µM
T2 construct: purchased Reaction Biology Co. (Kinase HotSpot service)
Procedure: as §1

ERBB2/HER2 = target: T3, ERBB2/HER2 (Homo sapiens, UniProt P04626); assay: Kinase panel assay, ERBB2/HER2; conditions: ERBB2/HER2, 10 µM; read-out: Average % Enzyme Inhibition (Relative to DMSO Controls) at 10 µM
T3 construct: purchased Reaction Biology Co. (Kinase HotSpot service)
T3 sequence (P04626 23-1255): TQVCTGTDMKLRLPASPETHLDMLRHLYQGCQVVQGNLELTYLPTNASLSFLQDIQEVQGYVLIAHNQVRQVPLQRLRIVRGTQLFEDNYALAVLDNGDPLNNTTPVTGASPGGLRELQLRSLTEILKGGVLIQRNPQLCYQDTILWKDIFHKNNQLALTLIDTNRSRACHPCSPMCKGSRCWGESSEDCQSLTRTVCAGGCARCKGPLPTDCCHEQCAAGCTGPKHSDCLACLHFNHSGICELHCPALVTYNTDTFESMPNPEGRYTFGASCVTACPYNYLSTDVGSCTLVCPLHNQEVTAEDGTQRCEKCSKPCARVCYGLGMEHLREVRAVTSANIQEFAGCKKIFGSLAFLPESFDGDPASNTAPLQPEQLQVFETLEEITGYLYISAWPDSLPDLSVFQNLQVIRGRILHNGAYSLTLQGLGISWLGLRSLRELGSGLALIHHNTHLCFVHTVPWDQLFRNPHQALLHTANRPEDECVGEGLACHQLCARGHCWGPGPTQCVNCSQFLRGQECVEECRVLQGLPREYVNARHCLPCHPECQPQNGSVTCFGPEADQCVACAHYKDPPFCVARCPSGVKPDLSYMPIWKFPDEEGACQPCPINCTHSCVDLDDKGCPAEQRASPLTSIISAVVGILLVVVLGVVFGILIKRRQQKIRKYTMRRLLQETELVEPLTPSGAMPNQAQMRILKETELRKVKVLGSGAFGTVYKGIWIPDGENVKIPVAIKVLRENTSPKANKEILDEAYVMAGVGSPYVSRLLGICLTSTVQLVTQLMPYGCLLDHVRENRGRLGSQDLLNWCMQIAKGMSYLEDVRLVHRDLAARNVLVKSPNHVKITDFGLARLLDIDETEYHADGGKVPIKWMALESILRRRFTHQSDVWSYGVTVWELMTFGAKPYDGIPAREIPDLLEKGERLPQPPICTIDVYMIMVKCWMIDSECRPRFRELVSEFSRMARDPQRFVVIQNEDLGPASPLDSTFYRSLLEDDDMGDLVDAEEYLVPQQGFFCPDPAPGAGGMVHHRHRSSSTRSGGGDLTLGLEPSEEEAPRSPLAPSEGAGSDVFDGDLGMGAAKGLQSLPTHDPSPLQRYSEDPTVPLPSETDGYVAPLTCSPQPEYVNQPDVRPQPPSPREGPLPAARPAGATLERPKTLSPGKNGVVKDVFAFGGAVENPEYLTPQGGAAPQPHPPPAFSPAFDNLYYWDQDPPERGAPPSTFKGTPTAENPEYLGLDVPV
Procedure: as §1

inhibition at 10 µM (Aurora A): 67.9 ± 4.93% | inhibition at 10 µM (CDK2/cyclin A): 75 ± 2.07% | inhibition at 10 µM (ERBB2/HER2): 67.8 ± 0.99%
Compound: NS(=O)(=O)c1ccc(Nc2ncnc3ccc(-c4cccc(O)c4)cc23)cc1 [Compound 4c, 4-((6-(3-Hydroxyphenyl)quinazolin-4-yl)amino)benzenesulfonamide]
